From patent US4996227A, “3-(heteroarylalkyene)- and 3-(arylalkylene)-2,4(3H,5H)-heterocyclic diones as cancer chemotherapy drugs” (priority 1989, dated 1991) come the findings set out here.

Where two headings read alike, the source gives them in different places.

The subject of data set [1] is human tumor H5315 BREAST. As to the kind of experiment: Human Tumor Stem Cell Assay, colony growth after one hour exposure. The format is cell-based. Particulars: LO: furandione 0.2 mcg/ml; standard drugs 10% of peak plasma concentration; 1 h. From the text:
(§1) The in vitro Human Tumor Stem Cell Assay procedure described as follows has several advantages for testing the effectiveness of chemotherapy drugs such as the 3-(heteroarylalkylene)-2,4(3H,5H)-furandiones. The first advantage is that fresh tumor cells from a variety of tumor types were used rather than a small number of cell lines which have undergone severe selection pressures as they are passed in vitro. The second advantage is that only the anchorage-independent tumor cells will form colonies in soft agar so that any non-malignant cells present in the sample will not form colonies. Perhaps the most important advantage, however, is the emphasis on cells which have the ability to form colonies. These cells, which are generally called stem cells, usually comprise only a small percentage of all tumor cells. They are thought to be the most important cells for growth and distant spread of a tumor. In particular, these cells have the potential to leave the primary tumor and form new tumors at distant sites (called metastases). It is the effectiveness against these very important stem cells that the Human Tumor Stem Cell Assay measures.
(§2) One of the 3-(heteroarylalkylene)-2,4(3H,5H)-furandione compounds, 3-[(5-methyl-2-thienyl) methylene]-2,4(3H,5H)-furandione was evaluated against a series of 10 human tumors in the in vitro Human Tumor Cell Assay, along with conventional and standard chemotherapy agents.
(§3) In the procedure, a single cell suspension was prepared from tumors excised from patients during therapeutic or diagnostic surgical procedures. The human tumor cells were exposed to known anticancer drugs or to [(5-methyl-2-thienyl)methylene]-2,4 (3H, 5H)-furandione at a low (0.2 mcg/ml) or a high (1.0 mcg/ml) concentration for one hour. […] The suspension was washed with tissue culture medium to remove the drug.
(§4) The suspension was then cultured in a double soft agar suspension. Control cells which had been treated identically, except for exposure to the drugs, were also cultured. After one to two weeks, both the tumor cells and the control cells formed colonies in the soft agar which were enumerated under a microscope. The number of colonies grown from the drug-treated cells was compared to the number of colonies grown from the control cells, and the percentage growth after exposure to the drug was calculated.
(§5) The results are illustrated in Table 1, wherein the various numbers indicate the percentage of growth. For example, a small number like 6 means that the number of colonies is only 6% of the number without addition of the compound. On the other hand, a large number like 120 means that the number of colonies is 20% greater with the compound than without.
(§6) Of the nine tumors for which the higher concentration (1.0 mcg/ml) of the furandione was used, five gave inhibition of colony growth corresponding to borderline sensitive (30-50% growth) and four gave inhibition corresponding to sensitivity (0-30% growth). Clinical drugs are normally tested at 10% of their peak plasma concentration. For the standard chemotherapy drugs shown in Table 1, the low concentration (LO) corresponds to this 10% level, and the high concentration (HI) is at 50% of the peak plasma concentration. Of the same nine tumors, only two would have been rated as sensitive or borderline sensitive to any of the other clinical drugs tested.

Data set [2] relates to human tumor H5318 OVARY. The data set is described as above. The format is cell-based. Particulars: HI: furandione 1.0 mcg/ml; standard drugs 50% of peak plasma concentration; 1 h.
Text: as §1, §2, §3, §4, §5, §6

Data set [3] has as its system human tumor H5319 BREAST. The description is as above. The format is cell-based. Particulars: 1 h.
Text: as §1, §2, §3, §4, §5, §6

In data set [4] the test system is human tumor H5322 STOMACH. The description is as above. It is filed as cell-based. Particulars: 1 h.
Text: as §1, §2, §3, §4, §5, §6

Data set [5] concerns human tumor H5330 THYMUS. Described as above. Particulars: 1 h. It is filed as cell-based.
Text: as §1, §2, §3, §4, §5, §6

For data set [6], the system named is human tumor H5331 OVARY. Described as above. It is filed as cell-based. To be noted: 1 h.
Text: as §1, §2, §3, §4, §5, §6

For data set [7], the system named is human tumor H5340 **. Described as above. The format is cell-based. To be noted: 1 h.
Text: as §1, §2, §3, §4, §5, §6

Data set [8] relates to human tumor H5349 BREAST. The description is as above. It is filed as cell-based. To be noted: 1 h.
Text: as §1, §2, §3, §4, §5, §6

The test system of data set [9] is human tumors. Nature of the data set: Human Tumor Stem Cell Assay, summary over the tumor panel. Particulars: for activity at 1 µg/mL: Homo sapiens, 1.0 mcg/ml, 1 h. It is filed as cell-based.
Text: as §1, §2, §3, §4
The results are illustrated in Table 1, wherein the various numbers indicate the percentage of growth. For example, a small number like 6 means that the number of colonies is only 6% of the number without addition of the compound. On the other hand, a large number like 120 means that the number of colonies is 20% greater with the compound than without. […]

For data set [10], the system named is healthy mice. As to the kind of experiment: Toxicology testing in healthy mice: pathological evaluation. It is filed as in vivo. As for the experimental part: The purpose of this example was to determine approximate toxicity of the compound 3[(5-methyl-2-thienyl) methylene]-2,4(3H,5H)-furandione in healthy mice. The in vivo concentrations employed in the example were selected by using the in vitro results in the Human Tumor Stem Cell Assay as a guide. The compound was given to the mice by means of intra-peritoneal injection. In addition to a control group which was injected with the appropriate carrier solution without drug, three test groups with calculated plasma concentrations of 1, 10 and 100 mcg/ml (low, medium and high concentrations) were prepared. Based upon the results from Table 1, the three test groups represent low, medium and high concentrations of drug dosages. The highest concentration of 100 mcg/ml is about 10 times the predicted effective dose (in vivo) of tumoricidal activity. Each group contained eight animals. Blood was extracted from four animals in each group two days after the intraperitoneal injection and routine hematology (i.e., a hemoglobin concentration, a white blood cell count, and a neutrophil count) procedures were performed.
As previously stated, half of the animals in each group were sacrificed after one week (Day 7), and the remaining animals were sacrificed after two weeks (Day 14). […]

In data set [11] the test system is KS62 strain stem-cell human leukemia cells. Nature of the data set: Inhibition of human leukemia cell growth in vitro, as done in Example 3. To be noted: Homo sapiens. The format is cell-based. As for the experimental part: A conventionally available cell line (K562) derived from human chronic granulocytic leukemia was employed in an in vitro procedure. The leukemia cell line was cultured in a suspension of RPMI 1640 plus 10% fetal calf serum. All initial cell concentrations for the cultures were 0.65 times 10^5 cells/ml. Four separate suspension cultures were employed with the first suspension culture having no additions. The second suspension culture included 100 microliters of the solvent DMSO per 10 ml of culture (control). The third culture contained 1 ug/ml of 3[[5-methyl-2 thienyl]methylene]-2, 4 (3H, 5H) furandione and the fourth culture contained 1 ug/ml of 3[[3-methyl-2-thienyl]methylene]-2, 4 (3H, 5H) furandione. The cell concentration of each of the four cultures was determined. After three days and again after five days.
In this example, aliquots of 1.0, 5.0 and 10.0 mcg/ml of each of the family compounds was prepared and assayed against KS62 strain stem-cell human leukemia cells in an in vitro procedure as done in Example 3 above.

The mark [12] stands for this setting: HI: furandione 1.0 mcg/ml, standard drugs 50% of peak plasma concentration.
Setting [13] is: LO: furandione 0.2 mcg/ml, standard drugs 10% of peak plasma concentration.

Take `Cc1ccc(C=C2C(=O)COC2=O)s1` [Compound 4, 3[(5-methyl-2-thienyl)methylene]2,4(3H,5H)-furandione]: the “percentage of growth (colonies vs control)” value (shortened to “percentage of growth”) was determined as 62% in data set [1]; 29% in [2]; 6% in [3] (setting [12]); 210% in [3] (setting [13]); 36% in [4] (setting [12]); 68% in data set [4] (setting [13]). The “percentage of growth” value in data set [5] (setting [12]) amounted to 38%; in data set [5] (setting [13]), 79%; in data set [6] (setting [12]), 48%; in data set [6] (setting [13]) it was 64%; in [7] (setting [12]), 50%; in [7] (setting [13]) it was 62%. Moreover, the “percentage of growth” value in [8] (setting [12]) is 9%; in data set [8] (setting [13]), 82%. Further, the activity at 1 µg/mL in data set [9] (five of nine tumors, read-out: growth, borderline sensitive tumors) lay within 30 to 50%; in data set [9] (four of nine tumors, read-out: growth, sensitive tumors), 0 to 30%. Moreover, the “peak plasma concentration at which compound should be effective in vivo” value in data set [9] (by analogy with other chemotherapy drugs) is 10 µg/mL. Moreover, the “activity against human solid tumors in vitro” value in data set [9] (one hour exposure, 1 mcg/ml) is “extremely active against a wide variety of human solid tumors in vitro”. Also, the “pathology of organs, bone, brain, etc.” value in [10] (all dose groups, 7 or 14 days) is on record as “not remarkably altered within the testing period”. For the same compound, in data set [10] (high concentrations), the “pathology of organs, bone, etc., vs low concentration and control groups” value is reported as “do not appear to affect any of the organs, bone, etc. of the test animals to any lesser or greater degree than the low concentration drug group or the control group”. In data set [11] (1.0 mcg/ml), this compound showed an inhibition at 1 µg/mL of 32%. Moreover, the inhibition at 5 µg/mL in [11] (5.0 mcg/ml) stood at 97%. This compound yielded an inhibition at 10 µg/mL in data set [11] (10.0 mcg/ml) of 100%.
